{"source": "patent US6610324B2", "about": "“Flupirtine in the treatment of fibromyalgia and related conditions” (The McLean Hospital Corporation, priority 1999, dated 2003)", "key": {"[1]": {"details": "in some, but not all, studies; cited from earlier work"}, "[2]": {"tested_on": "patients with fibromyalgia", "assay": "Flupirtine treatment of patients with fibromyalgia", "format": "in vivo", "excerpt": "Flupirtine is an analgesic that has been used in Europe to treat the pain associated with surgery, cancer, trauma, and liver disease. It acts via the central nervous system through non-opite pain pathways, possibly involving the thalamus or spinal pain pathways."}, "[3]": {"details": "cited from earlier work"}}, "data": [{"smiles": "CCOC(=O)Nc1ccc(NCc2ccc(F)cc2)nc1N", "note": "[flupirtine, 2-amino-3-carbethoxyamino-6-(4-fluorobenzylamino)-pyridine]", "values": [{"measurement": "effectiveness in relieving pain compared with opiates", "setting": "[1]", "value": "as effective as opiates"}, {"measurement": "analgesic action compared with opiates", "setting": "[2]; patients with fibromyalgia and related conditions", "value": "roughly comparable to the effect produced by opiates"}, {"measurement": "effect on chronic and severe body pain", "setting": "[2]; some patients with fibromyalgia, also where high doses of opiates, NSAIDs and placquenil fail", "value": "completely eliminating the chronic and severe body pain"}, {"measurement": "withdrawal symptoms", "setting": "[3]; abrupt discontinuation of administration", "value": "does not produce withdrawal symptoms"}, {"measurement": "sedation", "setting": "[3]; compared with opiate drugs", "value": "less sedating than opiate drugs"}, {"measurement": "addiction and abuse", "setting": "[3]; compared with opiates, no reports of abuse", "value": "not addictive"}, {"measurement": "tolerance to analgesic effects", "setting": "[3]; human, in vivo", "value": "do not acquire a tolerance"}, {"measurement": "reported side effects", "setting": "[3]; relatively safe at dosages lower than 600 mg per day", "value": "dizziness, drowsiness, pruritus, dry mouth, and, less frequently, nausea, depression, sleep disturbance, and headache"}, {"measurement": "cardiovascular side effects", "setting": "[3]; unlike opiates", "value": "not associated with cardiovascular side effects"}, {"measurement": "muscle relaxant properties", "setting": "[3]; unlike opiates", "value": "exhibits muscle relaxant properties"}]}]}
